Source: PMC8624998, “Synthesis and Antiproliferative Evaluation of 3-Chloroazetidin-2-ones with Antimitotic Activity: Heterocyclic Bridged Analogues of Combretastatin A-4” (Pharmaceuticals, 2021)
Where two headings read alike, the source gives them in different places. One block for each molecule: values may come before it.

What was measured:
SK-MEL-5 = test: NCI-60 5 dose screen, Melanoma; type: cell-based; conditions: Homo sapiens
NCI-H460 = test: NCI-60 5 dose screen, NSC Lung Cancer; type: cell-based; conditions: Homo sapiens
MDA-MB-435 = test: NCI-60 5 dose screen, Melanoma; type: cell-based; conditions: Homo sapiens
MCF-7 cells = test: Cell viability assay (MTT/AlamarBlue), antiproliferative activity; type: cell-based, human; conditions: read-out: IC50 (MCF-7, 72 h)
Summary of the method: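 MCF-7 cells seeded, left 24 h at 37 °C, then exposed 72 h to compound (1 nM–200 μM, or 0.001–100 μM) in ethanol or DMSO vehicle (≤1% ethanol, 0.1% DMSO). Viability read by MTT (1 mg/mL final, 3 h) or AlamarBlue (10% v/v, 3–5 h), relative to untreated controls as 100%.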

HCT-2998 = test: NCI-60 5 dose screen, Colon Cancer; type: cell-based; conditions: Homo sapiens
SN12C = test: NCI-60 5 dose screen, Renal Cancer; type: cell-based; conditions: Homo sapiens
UACC-257 = test: NCI-60 5 dose screen, Melanoma; type: cell-based; conditions: Homo sapiens
KM12 = test: NCI-60 5 dose screen, Colon Cancer; type: cell-based; conditions: Homo sapiens
RXF 393 = test: NCI-60 5 dose screen, Renal Cancer; type: cell-based; conditions: Homo sapiens
EKVX = test: NCI-60 5 dose screen, NSC Lung Cancer; type: cell-based; conditions: Homo sapiens
PC-3 = test: NCI-60 5 dose screen, Prostate cancer; type: cell-based; conditions: Homo sapiens
U266 cells = test: Cell viability assay, antiproliferative activity; type: cell-based; conditions: Homo sapiens, U-266; U266, 72 h
Description: Compounds 10n and 10e were next evaluated for antiproliferation in multiple myeloma (U266) cells. Multiple myeloma, also known as plasma cell myeloma, is a malignant haematological disease characterised by the proliferation of clonal plasma cells predominantly in the bone marrow. U266 cells are considered to be the least sensitive multiple myeloma cells to nucleoside drug cladribine compared to RPMI8226 and MM1.S cells.
The human breast carcinoma cell line MCF-7 was purchased from the European Collection of Animal Cell Cultures (ECACC). Triple negative breast cancer Hs578T cells and its invasive variant Hs578Ts(i)8 were a kind gift from Dr. Susan McDonnell, School of Chemical and Bioprocess Engineering, University College Dublin. U266 cells were a gift from Dr. Tony McElligott, School of Medicine, St James’s Hospital, Trinity College Dublin. HT-29 cells were purchased from the European Collection of Cell Cultures (originating from a human adenocarcinoma of the colon). The human breast carcinoma cell line MDA-MB-231 and the HL-60 cells derived from a patient with acute myeloid leukaemia were both obtained from ECACC (Salisbury, UK). The SW-480 cells were a kind gift from Dr. Brian Flood, School of Biochemistry and Immunology, Trinity College Dublin. HEK-293T (normal epithelial embryonic kidney cells) were cultured in Dulbecco’s Modified Eagle’s Medium (DMEM) with GlutaMAXTM-I in the absence of non-essential amino acids. […] Cell numbers were monitored using a haemocytometer. […]
A stock solution of each β-lactam compound was prepared (10 mM) and serial […] dilutions were made with ethanol for compounds to have working dilutions of 1 nM, 10 nM, 100 nM, 500 nM, 1µM, 5 µM, 10 µM and 50 µM. […] Solubilisation was commenced by the addition of DMSO ([…]) and the cells were maintained at 20 °C in the dark for 20 min before reading the absorbance to ensure complete colour diffusion. […]

[1] = Homo sapiens, MCF7, 72 h, MCF-7, 72 h

SMILES: CCSc1ccc(C2C(Br)C(=O)N2c2cc(OC)c(OC)c(OC)c2)cc1 (stereo not shown) [Compound 16d, 3-Bromo-4-(4-(ethylthio)phenyl)-1-(3,4,5-trimethoxyphenyl)azetidin-2-one]
GI50 (SK-MEL-5; read-out: GI50): 86.1 nM | GI50 (NCI-H460; read-out: GI50): 539 nM | GI50 (MDA-MB-435; read-out: GI50): 37.7 nM | IC50 (MCF-7 cells; [1]): 1100 ± 100 nM | GI50 (HCT-2998; HCT-2998, read-out: GI50): 673 nM | GI50 (SN12C; read-out: GI50): 925 nM | GI50 (UACC-257; read-out: GI50): 14300 nM | GI50 (KM12; read-out: GI50): 202 nM | GI50 (RXF 393; read-out: GI50): 170 nM | GI50 (EKVX; read-out: GI50): 639 nM | GI50 (PC-3; read-out: GI50): 297 nM

SMILES: COc1ccc(/C=C\c2cc(OC)c(OC)c(OC)c2)cc1O [CA-4, Combretastatin A-4]
IC50 (MCF-7 cells; [1]): 3.9 nM | IC50 (MCF-7 cells; MCF-7, 72 h): 4 nM | IC50 (U266 cells): 35 ± 10 nM

IC50 (MCF-7 cells; [1]): 56 ± 7 nM | IC50 (U266 cells): 77 ± 20 nM
SMILES: COc1ccc([C@H]2[C@H](Cl)C(=O)N2c2cc(OC)c(OC)c(OC)c2)cc1 (relative stereo) [Compound 10e trans, Trans-3-chloro-1-(3,4,5-trimethoxyphenyl)-4-(4-methoxyphenyl) azetidin-2-one]
GI50 (SK-MEL-5; read-out: GI50): 31.2 nM | GI50 (NCI-H460; read-out: GI50): 306 nM | GI50 (MDA-MB-435; read-out: GI50): 22.6 nM | GI50 (HCT-2998; HCT-2998, read-out: GI50): 80.4 nM | GI50 (SN12C; read-out: GI50): 83.7 nM | GI50 (UACC-257; read-out: GI50): 23300 nM | GI50 (KM12; read-out: GI50): 39.3 nM | GI50 (RXF 393; read-out: GI50): 27.1 nM | GI50 (EKVX; read-out: GI50): 69.4 nM | GI50 (PC-3; read-out: GI50): 44.1 nM

SMILES: COc1ccc(C2N(c3cc(OC)c(OC)c(OC)c3)C(=O)C2(Cl)Cl)cc1O (stereo not shown) [Compound 11n, 3,3-Dichloro-4-(3-hydroxy-4-methoxyphenyl)-1-(3,4,5-trimethoxyphenyl)azetidin-2-one]
GI50 (SK-MEL-5): 22.5 nM | GI50 (NCI-H460): 35.4 nM | GI50 (MDA-MB-435): 20.2 nM | IC50 (MCF-7 cells; Homo sapiens, MCF7, 72 h): 31 ± 4 nM | GI50 (HCT-2998): 53.4 nM | GI50 (SN12C): 44.6 nM | GI50 (UACC-257): 158 nM | GI50 (KM12): 31.8 nM | GI50 (RXF 393): 30 nM | GI50 (EKVX): 46.4 nM | GI50 (PC-3): 35.3 nM

IC50 (MCF-7 cells; [1]): 17.5 ± 9 nM | IC50 (MCF-7 cells; MCF-7, 72 h): 17 ± 9 nM | IC50 (U266 cells): 31 ± 10 nM
SMILES: COc1ccc(C2C(Cl)C(=O)N2c2cc(OC)c(OC)c(OC)c2)cc1O (stereo not shown) [Compound 10n, 3-Chloro-4-(3-hydroxy-4-methoxy-phenyl)-1-(3,4,5-trimethoxyphenyl)azetidin-2-one]
